Measured values taken from PubChem BioAssay (NCI).
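Test compounds were applied to cells in 96-well plates for 48 hours at 5 doses. The concentration for 50% growth inhibition is given as GI50. The concentration for full growth arrest is given as TGI.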

Assays:
Assay in all cases: DTP human tumour cell line panel, 48 h
HL-60(TB) leukemia = system: HL-60(TB) leukemia
OVCAR-4 ovarian = system: OVCAR-4 ovarian
MALME-3M melanoma = system: MALME-3M melanoma
SK-MEL-28 melanoma = system: SK-MEL-28 melanoma
LOX IMVI melanoma = system: LOX IMVI melanoma
DU-145 prostate = system: DU-145 prostate
HOP-92 NSCLC = system: HOP-92 NSCLC
MCF7 breast = system: MCF7 breast
NCI-H460 lung = system: NCI-H460 lung
ACHN renal = system: ACHN renal
IGROV1 ovarian = system: IGROV1 ovarian
U251 CNS = system: U251 CNS
SF-295 CNS = system: SF-295 CNS
OVCAR-5 ovarian = system: OVCAR-5 ovarian
A549 NSCLC = system: A549 NSCLC
SN12C renal = system: SN12C renal
HS 578T breast = system: HS 578T breast
MDA-MB-231 breast = system: MDA-MB-231 breast
NCI-H226 lung = system: NCI-H226 lung
UO-31 renal = system: UO-31 renal
SW-620 colon = system: SW-620 colon
KM12 colon = system: KM12 colon
RXF 393 renal = system: RXF 393 renal
K-562 leukemia = system: K-562 leukemia
HT29 colon = system: HT29 colon
RPMI-8226 leukemia = system: RPMI-8226 leukemia
COLO 205 colon = system: COLO 205 colon
786-0 renal = system: 786-0 renal
SNB-19 CNS = system: SNB-19 CNS
NCI/ADR-RES ovarian = system: NCI/ADR-RES ovarian
HCT-15 colon = system: HCT-15 colon
A498 renal = system: A498 renal
SNB-75 CNS = system: SNB-75 CNS
HCT-116 colon = system: HCT-116 colon
SK-MEL-2 melanoma = system: SK-MEL-2 melanoma
PC-3 prostate = system: PC-3 prostate
EKVX NSCLC = system: EKVX NSCLC
OVCAR-8 ovarian = system: OVCAR-8 ovarian
CAKI-1 renal = system: CAKI-1 renal
HCC-2998 colon = system: HCC-2998 colon
T-47D breast = system: T-47D breast
UACC-62 melanoma = system: UACC-62 melanoma
SF-539 CNS = system: SF-539 CNS
TK-10 renal = system: TK-10 renal
SK-MEL-5 melanoma = system: SK-MEL-5 melanoma
M14 melanoma = system: M14 melanoma
HOP-62 NSCLC = system: HOP-62 NSCLC
UACC-257 melanoma = system: UACC-257 melanoma
MOLT-4 leukemia = system: MOLT-4 leukemia
CCRF-CEM leukemia = system: CCRF-CEM leukemia
NCI-H23 lung = system: NCI-H23 lung
BT-549 breast = system: BT-549 breast
SF-268 CNS = system: SF-268 CNS
SK-OV-3 ovarian = system: SK-OV-3 ovarian

CCC1=Cc2c(OC)cccc2OC12C=Cc1c(OC)cccc1O2 (stereo not drawn)
GI50 (HL-60(TB) leukemia): 507 nM | TGI (HL-60(TB) leukemia): > 100000 nM | GI50 (OVCAR-4 ovarian): 47400 nM | TGI (OVCAR-4 ovarian): > 100000 nM | GI50 (MALME-3M melanoma): 3790 nM | TGI (MALME-3M melanoma): > 100000 nM | GI50 (SK-MEL-28 melanoma): > 100000 nM | TGI (SK-MEL-28 melanoma): > 100000 nM | GI50 (LOX IMVI melanoma): 1600 nM | TGI (LOX IMVI melanoma): > 100000 nM | GI50 (DU-145 prostate): 2140 nM | TGI (DU-145 prostate): > 100000 nM | GI50 (HOP-92 NSCLC): 1000 nM | TGI (HOP-92 NSCLC): 8790 nM | GI50 (MCF7 breast): 414 nM | TGI (MCF7 breast): > 100000 nM | GI50 (NCI-H460 lung): 2570 nM | TGI (NCI-H460 lung): 14200 nM | GI50 (ACHN renal): 2850 nM | TGI (ACHN renal): > 100000 nM | GI50 (IGROV1 ovarian): 2500 nM | TGI (IGROV1 ovarian): > 100000 nM | GI50 (U251 CNS): 1090 nM | TGI (U251 CNS): > 100000 nM | GI50 (SF-295 CNS): 1010 nM | TGI (SF-295 CNS): > 100000 nM | GI50 (OVCAR-5 ovarian): 1840 nM | TGI (OVCAR-5 ovarian): > 100000 nM | GI50 (A549 NSCLC): 1520 nM | TGI (A549 NSCLC): > 100000 nM | GI50 (SN12C renal): 940 nM | TGI (SN12C renal): > 100000 nM | GI50 (HS 578T breast): 2550 nM | TGI (HS 578T breast): > 100000 nM | GI50 (MDA-MB-231 breast): 2030 nM | TGI (MDA-MB-231 breast): 73200 nM | GI50 (NCI-H226 lung): 2840 nM | TGI (NCI-H226 lung): 52100 nM | GI50 (UO-31 renal): 2400 nM | TGI (UO-31 renal): > 100000 nM | GI50 (SW-620 colon): 707 nM | TGI (SW-620 colon): > 100000 nM | GI50 (KM12 colon): 519 nM | TGI (KM12 colon): 32400 nM | GI50 (RXF 393 renal): 990 nM | TGI (RXF 393 renal): 7290 nM | GI50 (K-562 leukemia): 463 nM | TGI (K-562 leukemia): > 100000 nM | GI50 (HT29 colon): 508 nM | TGI (HT29 colon): 3760 nM | GI50 (RPMI-8226 leukemia): 2870 nM | TGI (RPMI-8226 leukemia): > 100000 nM | GI50 (COLO 205 colon): 1310 nM | TGI (COLO 205 colon): 3700 nM | GI50 (786-0 renal): 1840 nM | TGI (786-0 renal): > 100000 nM | GI50 (SNB-19 CNS): 646 nM | TGI (SNB-19 CNS): > 100000 nM | GI50 (NCI/ADR-RES ovarian): 678 nM | TGI (NCI/ADR-RES ovarian): > 100000 nM | GI50 (HCT-15 colon): 469 nM | TGI (HCT-15 colon): > 100000 nM | GI50 (A498 renal): 1300 nM | TGI (A498 renal): 4170 nM | GI50 (SNB-75 CNS): 1310 nM | TGI (SNB-75 CNS): 9270 nM | GI50 (HCT-116 colon): 436 nM | TGI (HCT-116 colon): > 100000 nM | GI50 (SK-MEL-2 melanoma): 1220 nM | TGI (SK-MEL-2 melanoma): 6030 nM | GI50 (PC-3 prostate): 1730 nM | TGI (PC-3 prostate): > 100000 nM | GI50 (EKVX NSCLC): 4740 nM | TGI (EKVX NSCLC): > 100000 nM | GI50 (OVCAR-8 ovarian): 2150 nM | TGI (OVCAR-8 ovarian): 6510 nM | GI50 (CAKI-1 renal): 858 nM | TGI (CAKI-1 renal): > 100000 nM | GI50 (HCC-2998 colon): 2580 nM | TGI (HCC-2998 colon): 13200 nM | GI50 (T-47D breast): 16300 nM | TGI (T-47D breast): > 100000 nM | GI50 (UACC-62 melanoma): 530 nM | TGI (UACC-62 melanoma): > 100000 nM | GI50 (SF-539 CNS): 1570 nM | TGI (SF-539 CNS): 9030 nM | GI50 (TK-10 renal): 24500 nM | TGI (TK-10 renal): > 100000 nM | GI50 (SK-MEL-5 melanoma): 1240 nM | TGI (SK-MEL-5 melanoma): 8330 nM | GI50 (M14 melanoma): 570 nM | TGI (M14 melanoma): 22000 nM | GI50 (HOP-62 NSCLC): 1660 nM | TGI (HOP-62 NSCLC): > 100000 nM | GI50 (UACC-257 melanoma): 7480 nM | TGI (UACC-257 melanoma): > 100000 nM | GI50 (MOLT-4 leukemia): 2390 nM | TGI (MOLT-4 leukemia): > 100000 nM | GI50 (CCRF-CEM leukemia): 551 nM | TGI (CCRF-CEM leukemia): > 100000 nM | GI50 (NCI-H23 lung): 2930 nM | TGI (NCI-H23 lung): > 100000 nM | GI50 (BT-549 breast): 1610 nM | TGI (BT-549 breast): 6220 nM | GI50 (SF-268 CNS): 3090 nM | TGI (SF-268 CNS): > 100000 nM | GI50 (SK-OV-3 ovarian): 2930 nM | TGI (SK-OV-3 ovarian): > 100000 nM
